Measured values taken from article PMC12567096, “An Efficacy- and In Vivo Exposure-Oriented Integrated Study to Investigate the Effective Components of Qishen Granule” (Pharmaceuticals, 2025).
Read-outs that look alike come from different tables or passages of the source.

Tests used:
[1] = rat, in vivo
Procedure: (§2) Ion source parameters were set as follows: temperatures of drying gas and sheath gas were 300 °C and 300 °C, flow rates of drying gas and sheath gas were 7 L/min and 11 L/min, the nebulizer was set at 35 psig, capillary voltage was 3500 V (−), and nozzle voltage was 2000 V (−). […] Chromatographic separations were conducted on a ZORBAX Eclipse Plus C18 column (3.0 × 50 mm, 1.8 μm, Agilent Technologies, California, USA). The mobile phase was composed of 0.1% aqueous FA (A, (v/v)) and 0.1% formic acid methanol (B), the flow rate was set at 0.5 mL/min, and the column oven was maintained at 40 °C.
(§3) Protein precipitation was carried out for each time point for plasma samples, calibration samples, or QC samples by introducing four volumes of acetonitrile containing 400 ng/mL of icariin. Then, 10 μL 10% aqueous ascorbic acid (v/v) was spiked into each sample to prevent the oxidation of phenolic compounds. […] An aliquot (450 μL) of the supernatant was transferred and dried under nitrogen vacuum.
(§4) The pharmacokinetic parameters were calculated by DAS software (version 2.0) for a non-compartmental analysis.

[2] = test system: H9c2 cells; experiment: Cytotoxicity on H9c2 cells (CCK-8); type: cell-based, rat; details: for Inhibition rate: H9c2 cells, n=3
Procedure: (§1) Rat myocardial H9c2 cells (purchased from China Infrastructure of Cell Line Resources, Institute of Basic Medical Sciences, Chinese Academy of Medical Sciences) were cultured in DMEM supplemented with 10% fetal bovine serum (FBS), Penicillin (100 U/mL), and Streptomycin (100 μg/mL) at 37 °C under a humidified atmosphere of 5% CO2 and 95% air. For OGD/R treatment, H9c2 cells were cultured in glucose-free DMEM under hypoxic conditions (95%N2 + 5%CO2) for 4 h at 37 °C followed by complete medium under normal conditions with air (95%) and CO2 (5%) for 2 h. A control group was maintained under normal culture conditions (with glucose-containing DMEM and 5% CO2) without undergoing OGD/R treatment. CCK8 was used to assess cell viability. After treatment, H9c2 cells were seeded in 96-well plates, with each well supplemented with 10 μL of CCK-8 solution and then incubated for 1 h. Finally, the absorbance at 450 nm was detected by a microplate reader (Model […] 200 PRO, TECAN, Grodig, Austria).
When evaluating the cytotoxicities of the absorbed compounds, the H9c2 cells were seeded in 96-well plates at a density of 1 × 10^4 cells/well; when cells reached 80% confluence, […] Afterward, the protective effects were verified by assessing the cell viability when treating with different concentrations (1, 10, 25, 50, and 100 μM) of the analytes prior to OGD/R treatment.

[3] = test system: OGD/R-induced H9c2 cells; experiment: Protective effect on OGD/R-induced H9c2 cells (CCK-8 cell viability); type: cell-based, rat; details: 1, 10, 25, 50 and 100 μM prior to OGD/R, vs model group
Procedure: as §1
When evaluating the cytotoxicities of the absorbed compounds, the H9c2 cells were seeded in 96-well plates at a density of 1 × 10^4 cells/well; when cells reached 80% confluence, they were treated with 25 and 50 μM of the 24 analytes to screen the non-toxic concentration ranges. Afterward, the protective effects were verified by assessing the cell viability when treating with different concentrations (1, 10, 25, 50, and 100 μM) of the analytes prior to OGD/R treatment.

[4] = Pharmacokinetic study in rats after oral administration of QSG
Procedure: as §2, §3, §4

[5] = Concentrations of 24 analytes in QSG treated plasma (Table S5); details: QSG treated plasma, n = 5
[6] = rat plasma, single oral 7 g/kg QSG, n = 6

## O=c1cc(-c2ccc(O)c(O)c2)oc2cc(O[C@@H]3O[C@H](CO)[C@@H](O)[C@H](O)[C@H]3O)cc(O)c12 [Luteoloside]
[1]
  Oral relative bioavailability: 0.019%
[1]; po
  AUC0→∞: 20.86 ng·h/mL
  Shape of the plasma concentration–time curve (in words): Double peaks
[1]; po, 7 g/kg
  AUC0→t: 12.39 ± 2.708 ng·h/mL
  AUC0→∞: 20.86 ± 6.586 ng·h/mL
  T1/2: 21.76 ± 16.85 h
[2]; 25 μM
  Inhibition rate: -4.2 ± 4.7%
[2]; 50 μM
  Inhibition rate: 8.1 ± 5.7%
[2]; 100 μM
  Inhibition rate: 4.1 ± 1.7%
[3]
  H9c2 cell survival after OGD/R (in words): significantly improve H9c2 cell survival rates

## Salvianolic acid B
[4]; Table S12, rats, oral QSG
  AUC0→∞: 2176 ng·h/mL
[4]; exposure (AUC0→∞) of the component in rats after oral QSG, as used for ECI
  AUCi: 2176
[4]; exposure level (AUC0→∞) compared with the dosage of each compound in QSG
  Oral relative bioavailability: 0.013%
[4]; from Table S12, rats, oral QSG
  Absorption efficiency / bioavailability (in words): much lower than most compounds
[4]; [6]
  AUC0→t: 1475 ± 187.4 ng·h/mL
  AUC0→∞: 2176 ± 842.3 ng·h/mL
  Cmax: 205.3 ± 65.50 ng/mL
  MRT: 11.08 ± 1.809 h
  T1/2: 10.83 ± 5.740 h
  Tmax: 0.566 ± 0.182 h
[4]; rat plasma, single oral 7 g/kg QSG, n = 6, listed as salvianolic acid B
  MRT: more than 10 h
[4]; rats, oral QSG
  Shape of the plasma concentration–time curve (in words): Double peaks
[4]; rats, oral QSG, 11 analytes
  Share of the total exposures (AUC0→∞) of all analytes: 43.48%
[5]; 0.08 h
  Concentration: 68.337 ± 49.223 ng/mL
[5]; 0.17 h
  Concentration: 115.490 ± 60.235 ng/mL
[5]; 0.5 h
  Concentration: 174.763 ± 84.875 ng/mL
[5]; 1 h
  Concentration: 83.989 ± 21.934 ng/mL
[5]; 2 h
  Concentration: 47.989 ± 9.996 ng/mL
[5]; 4 h
  Concentration: 34.225 ± 16.349 ng/mL
[5]; 8 h
  Concentration: 91.217 ± 8.136 ng/mL
[5]; 12 h
  Concentration: 56.609 ± 10.151 ng/mL
[2]; 25 μM
  Inhibition rate: -38.9 ± 5.2%
[2]; 50 μM
  Inhibition rate: -17.1 ± 7.2%
[2]; 100 μM
  Inhibition rate: 0.1 ± 3.2%
[2]; CCK-8, compared to the control group
  Effect on H9c2 cell viability / cytotoxicity (in words): significantly enhanced cell viabilities
[3]
  H9c2 cell survival after OGD/R (in words): significantly improve H9c2 cell survival rates
